{
  "source": "patent US20130178493A1",
  "about": "“USE OF 14,15-DIHYDRO-20,21-DINOREBURNAMENIN-14-OL FOR THE TREATMENT AND/OR PREVENTION OF SERIOUS DEPRESSION AND SLEEP/WAKING CYCLE DISORDERS” (BIOCORTECH, priority 2004, published 2013)",
  "key": {"[1]": {"system": "immunopositive neurones for TH in LC", "test": "Immunocytochemistry of tyrosine hydroxylase immunopositive neurones in locus caeruleus after IP injection", "type": "in vivo, Balb/c mice", "description": "(§1) The anatomical data presented in table 1 below were obtained three days after a single injection or after a sequential treatment of five injections at a rate of one injection every three days. Immunopositive cells for tyrosine hydroxylase (TH) and fibres containing noradrenaline were identified by immunocytochemistry in the examined brain areas. Sleep records were made on a group of ten Balb/c mice. The electroencephalogram for each animal was recorded continuously for five days for acquisition of basal data about the wake-sleep cycle. Five animals were then treated by five IP injections every three days starting from day 5 until day 17 of the experiment. The other five animals were injected with the excipient at the same time After the last injection, all mice were deprived of sleep for 6 hours and records went on for another two consecutive days to measure the total REM sleep recovery. The given BC19 dose is 20 mg/kg for each injection, in all these experiments."}, "Balb/c mice": {"system": "Balb/c mice", "test": "REM sleep recovery after sleep deprivation (electroencephalogram records)", "type": "in vivo", "description": "as §1"}, "mice": {"system": "mice", "settings": "mouse, in vivo, iv", "description": "Acute toxicity is determined on batches of 10 male and female mice, weighing from 20 to 22 g, fasting since the previous evening.\nThe product is administered intravenously, in solution in physiological saline solution, to which a few drops of hydrochloric acid have been added (products to be tested are then in hydrochloric solution).\nMortality is recorded daily for one week. Values of the lethal doses 50 (LD 50) were determined using the method given by Lichfield J. T. and Wilcoxon F. (J. Pharm. Exp. Therap. 96:99, 1949)."}, "[2]": {"system": "cells expressing hypocretine in the hypothalamus", "test": "Number of hypocretine-expressing neurones in hypothalamus after IP injection", "type": "in vivo, Balb/c mice"}, "[3]": {"system": "fibres containing noradrenaline in the prefrontal cortex", "test": "Density of noradrenaline-containing fibres in prefrontal cortex after sequential treatment", "type": "in vivo, Balb/c mice", "description": "as §1"}, "[4]": {"settings": "sacrifice 3 days after a single IP injection (20 mg/kg), Balb/c mice"}},
  "data": [
    {"smiles": "OC1CC2CCCN3CCc4c(n1c1ccccc41)C23", "note": "(racemic) [BC19, 14,15-dihydro 20,21-dinoreburnamenin14-ol]", "values": [
      {"measurement": "activity at 20 mg/kg", "setting": "[1]; Mus musculus, 72 h, sacrifice 3 days after a single IP injection (20 mg/kg), Balb/c mice, read-out: Total number of immunopositive neurones for TH in LC, % of controls", "value": 135, "unit": "%"},
      {"measurement": "Effect on noradrenergic phenotype in locus caeruleus (in words)", "setting": "[1]; injected into Balb/c mice", "value": "restoring the noradrenergic phenotype in a significant population of locus caeruleus"},
      {"measurement": "Total number of immunopositive neurones for TH in LC", "setting": "[1]; [4]", "value": "1228 ± 24"},
      {"measurement": "activity at 20 mg/kg", "setting": "Balb/c mice; Mus musculus, deprived mice (6 hours sleep deprivation), after five IP injections every three days, 20 mg/kg, Balb/c mice, read-out: Duration of REM sleep during the recovery period, % of controls without sleep deprivation", "value": "151 ± 11", "unit": "%"},
      {"measurement": "Duration of REM sleep during the recovery period", "setting": "Balb/c mice; deprived mice (6 hours sleep deprivation), after five IP injections every three days, 20 mg/kg, Balb/c mice", "value": "110 ± 8", "unit": "mn"},
      {"measurement": "Effect on recovery of REM sleep after sleep privation (in words)", "setting": "Balb/c mice; injected into Balb/c mice", "value": "reversing the inability of these consanguine mice to recover REM"},
      {"measurement": "Acute toxicity (mortality, LD 50)", "setting": "mice", "value": "did not demonstrate any toxicity"},
      {"measurement": "Effect on hypocretine phenotype in neurones of the hypothalamus (in words)", "setting": "[2]; injected into Balb/c mice", "value": "restoring the hypocretine phenotype in a sub-population of neurones of the hypothalamus"},
      {"measurement": "Number of neurones in the posterior third of the group of cells expressing hypocretine in the hypothalamus", "setting": "[2]; [4]", "value": "671 ± 24"},
      {"measurement": "Number of neurones in the posterior third of the group of cells expressing hypocretine in the hypothalamus, % of controls", "setting": "[2]; [4]", "value": "(121 ± 4%)"},
      {"measurement": "activity at 20 mg/kg", "setting": "[3]; Mus musculus, 72 h, sequential treatment: five IP injections, one every three days, 20 mg/kg, Balb/c mice, read-out: Density of fibres containing noradrenaline in the prefrontal cortex, % of controls", "value": 156, "unit": "%"},
      {"measurement": "Effect on noradrenergic innervation in the prefrontal cortex (in words)", "setting": "[3]; injected into Balb/c mice", "value": "restoring noradrenergic innervation in the prefrontal cortex"},
      {"measurement": "Density of fibres containing noradrenaline in the prefrontal cortex", "setting": "[3]; sequential treatment: five IP injections, one every three days, 20 mg/kg, Balb/c mice", "value": "0.050 ± 0.003", "unit": "μm/μm^2"}
    ]}
  ]
}
